Results as given in the NIST ThermoML archive (doi:10.1021/je050089u).
Numbers after ± are expanded uncertainties.

Assay: excess molar enthalpy (molar enthalpy of mixing); xn = mol fraction of the nth substance listed
Conditions: Fluid (supercritical or subcritical phases)

COC(=O)OC [dimethyl carbonate] + O=C=O
excess molar enthalpy (303.15 K, 6000 kPa, x2 = 0.7947): -1.9 ± 0.0287 kcal/mol
excess molar enthalpy (303.15 K, 6000 kPa, x2 = 0.8327): -1.93 ± 0.0311 kcal/mol
excess molar enthalpy (303.15 K, 6000 kPa, x2 = 0.8691): -1.96 ± 0.0311 kcal/mol
excess molar enthalpy (303.15 K, 6000 kPa, x2 = 0.8901): -1.95 ± 0.0311 kcal/mol
excess molar enthalpy (303.15 K, 6000 kPa, x2 = 0.897): -1.94 ± 0.0311 kcal/mol
excess molar enthalpy (303.15 K, 6000 kPa, x2 = 0.9039): -1.82 ± 0.0287 kcal/mol
excess molar enthalpy (303.15 K, 6000 kPa, x2 = 0.9372): -1.18 ± 0.0186 kcal/mol
excess molar enthalpy (303.15 K, 6000 kPa, x2 = 0.9693): -0.547 ± 0.00884 kcal/mol
excess molar enthalpy (308.15 K, 5000 kPa, x2 = 0.1537): -0.47 ± 0.00765 kcal/mol
excess molar enthalpy (308.15 K, 5000 kPa, x2 = 0.2239): -0.66 ± 0.0105 kcal/mol
excess molar enthalpy (308.15 K, 5000 kPa, x2 = 0.2901): -0.855 ± 0.0136 kcal/mol
excess molar enthalpy (308.15 K, 5000 kPa, x2 = 0.412): -1.2 ± 0.0189 kcal/mol
excess molar enthalpy (308.15 K, 5000 kPa, x2 = 0.4682): -1.36 ± 0.0213 kcal/mol
excess molar enthalpy (308.15 K, 5000 kPa, x2 = 0.5215): -1.49 ± 0.0234 kcal/mol
excess molar enthalpy (308.15 K, 5000 kPa, x2 = 0.6205): -1.73 ± 0.0263 kcal/mol
excess molar enthalpy (308.15 K, 5000 kPa, x2 = 0.7103): -1.93 ± 0.0311 kcal/mol
excess molar enthalpy (308.15 K, 5000 kPa, x2 = 0.7189): -1.93 ± 0.0311 kcal/mol
excess molar enthalpy (308.15 K, 5000 kPa, x2 = 0.7273): -1.88 ± 0.0287 kcal/mol
excess molar enthalpy (308.15 K, 5000 kPa, x2 = 0.7923): -1.4 ± 0.022 kcal/mol
excess molar enthalpy (308.15 K, 5000 kPa, x2 = 0.8674): -0.854 ± 0.0136 kcal/mol
excess molar enthalpy (308.15 K, 5000 kPa, x2 = 0.9364): -0.391 ± 0.00645 kcal/mol
excess molar enthalpy (308.15 K, 5000 kPa, x2 = 0.9877): -0.00526 ± 0.00191 kcal/mol
excess molar enthalpy (308.15 K, 5000 kPa, x2 = 0.9939): 0.0268 ± 0.00215 kcal/mol
excess molar enthalpy (308.15 K, 5500 kPa, x2 = 0.1547): -0.44 ± 0.00717 kcal/mol
excess molar enthalpy (308.15 K, 5500 kPa, x2 = 0.2917): -0.836 ± 0.0134 kcal/mol
excess molar enthalpy (308.15 K, 5500 kPa, x2 = 0.3544): -1.02 ± 0.0163 kcal/mol
excess molar enthalpy (308.15 K, 5500 kPa, x2 = 0.4138): -1.16 ± 0.0184 kcal/mol
excess molar enthalpy (308.15 K, 5500 kPa, x2 = 0.47): -1.31 ± 0.0208 kcal/mol
excess molar enthalpy (308.15 K, 5500 kPa, x2 = 0.5234): -1.45 ± 0.0227 kcal/mol
excess molar enthalpy (308.15 K, 5500 kPa, x2 = 0.574): -1.57 ± 0.0239 kcal/mol
excess molar enthalpy (308.15 K, 5500 kPa, x2 = 0.6222): -1.69 ± 0.0263 kcal/mol
excess molar enthalpy (308.15 K, 5500 kPa, x2 = 0.6681): -1.78 ± 0.0287 kcal/mol
excess molar enthalpy (308.15 K, 5500 kPa, x2 = 0.7119): -1.89 ± 0.0287 kcal/mol
excess molar enthalpy (308.15 K, 5500 kPa, x2 = 0.7536): -1.94 ± 0.0311 kcal/mol
excess molar enthalpy (308.15 K, 5500 kPa, x2 = 0.7698): -1.96 ± 0.0311 kcal/mol
excess molar enthalpy (308.15 K, 5500 kPa, x2 = 0.7935): -1.79 ± 0.0287 kcal/mol
excess molar enthalpy (308.15 K, 5500 kPa, x2 = 0.8317): -1.46 ± 0.0229 kcal/mol
excess molar enthalpy (308.15 K, 5500 kPa, x2 = 0.8682): -1.12 ± 0.0177 kcal/mol
excess molar enthalpy (308.15 K, 5500 kPa, x2 = 0.9368): -0.498 ± 0.00813 kcal/mol
excess molar enthalpy (308.15 K, 6000 kPa, x2 = 0.1556): -0.426 ± 0.00693 kcal/mol
excess molar enthalpy (308.15 K, 6000 kPa, x2 = 0.2931): -0.79 ± 0.0127 kcal/mol
excess molar enthalpy (308.15 K, 6000 kPa, x2 = 0.4154): -1.12 ± 0.0177 kcal/mol
excess molar enthalpy (308.15 K, 6000 kPa, x2 = 0.4717): -1.25 ± 0.0198 kcal/mol
excess molar enthalpy (308.15 K, 6000 kPa, x2 = 0.5757): -1.5 ± 0.0237 kcal/mol
excess molar enthalpy (308.15 K, 6000 kPa, x2 = 0.6238): -1.6 ± 0.0263 kcal/mol
excess molar enthalpy (308.15 K, 6000 kPa, x2 = 0.7132): -1.77 ± 0.0287 kcal/mol
excess molar enthalpy (308.15 K, 6000 kPa, x2 = 0.7549): -1.84 ± 0.0287 kcal/mol
excess molar enthalpy (308.15 K, 6000 kPa, x2 = 0.7946): -1.91 ± 0.0287 kcal/mol
excess molar enthalpy (308.15 K, 6000 kPa, x2 = 0.8326): -1.93 ± 0.0311 kcal/mol
excess molar enthalpy (308.15 K, 6000 kPa, x2 = 0.869): -1.5 ± 0.0237 kcal/mol
excess molar enthalpy (308.15 K, 6000 kPa, x2 = 0.9372): -0.715 ± 0.0115 kcal/mol
excess molar enthalpy (308.15 K, 6000 kPa, x2 = 0.9692): -0.276 ± 0.00454 kcal/mol
excess molar enthalpy (308.15 K, 6500 kPa, x2 = 0.0807): -0.219 ± 0.00382 kcal/mol
excess molar enthalpy (308.15 K, 6500 kPa, x2 = 0.1564): -0.404 ± 0.00669 kcal/mol
excess molar enthalpy (308.15 K, 6500 kPa, x2 = 0.2275): -0.582 ± 0.00932 kcal/mol
excess molar enthalpy (308.15 K, 6500 kPa, x2 = 0.2944): -0.751 ± 0.012 kcal/mol
excess molar enthalpy (308.15 K, 6500 kPa, x2 = 0.3574): -0.928 ± 0.0148 kcal/mol
excess molar enthalpy (308.15 K, 6500 kPa, x2 = 0.4169): -1.05 ± 0.0167 kcal/mol
excess molar enthalpy (308.15 K, 6500 kPa, x2 = 0.4733): -1.2 ± 0.0189 kcal/mol
excess molar enthalpy (308.15 K, 6500 kPa, x2 = 0.5266): -1.31 ± 0.0206 kcal/mol
excess molar enthalpy (308.15 K, 6500 kPa, x2 = 0.5772): -1.41 ± 0.0222 kcal/mol
excess molar enthalpy (308.15 K, 6500 kPa, x2 = 0.6253): -1.52 ± 0.0239 kcal/mol
excess molar enthalpy (308.15 K, 6500 kPa, x2 = 0.671): -1.61 ± 0.0263 kcal/mol
excess molar enthalpy (308.15 K, 6500 kPa, x2 = 0.7145): -1.67 ± 0.0263 kcal/mol
excess molar enthalpy (308.15 K, 6500 kPa, x2 = 0.756): -1.75 ± 0.0287 kcal/mol
excess molar enthalpy (308.15 K, 6500 kPa, x2 = 0.7956): -1.8 ± 0.0287 kcal/mol
excess molar enthalpy (308.15 K, 6500 kPa, x2 = 0.8335): -1.83 ± 0.0287 kcal/mol
excess molar enthalpy (308.15 K, 6500 kPa, x2 = 0.8697): -1.85 ± 0.0287 kcal/mol
excess molar enthalpy (308.15 K, 6500 kPa, x2 = 0.8837): -1.84 ± 0.0287 kcal/mol
excess molar enthalpy (308.15 K, 6500 kPa, x2 = 0.9044): -1.61 ± 0.0263 kcal/mol
excess molar enthalpy (308.15 K, 6500 kPa, x2 = 0.9376): -1.02 ± 0.0163 kcal/mol
excess molar enthalpy (308.15 K, 6500 kPa, x2 = 0.9694): -0.47 ± 0.00765 kcal/mol
excess molar enthalpy (308.15 K, 7000 kPa, x2 = 0.0812): -0.208 ± 0.00382 kcal/mol
excess molar enthalpy (308.15 K, 7000 kPa, x2 = 0.1572): -0.389 ± 0.00645 kcal/mol
excess molar enthalpy (308.15 K, 7000 kPa, x2 = 0.2285): -0.551 ± 0.00884 kcal/mol
excess molar enthalpy (308.15 K, 7000 kPa, x2 = 0.2956): -0.722 ± 0.0115 kcal/mol
excess molar enthalpy (308.15 K, 7000 kPa, x2 = 0.3587): -0.859 ± 0.0136 kcal/mol
excess molar enthalpy (308.15 K, 7000 kPa, x2 = 0.4184): -1 ± 0.0158 kcal/mol
excess molar enthalpy (308.15 K, 7000 kPa, x2 = 0.4747): -1.11 ± 0.0174 kcal/mol
excess molar enthalpy (308.15 K, 7000 kPa, x2 = 0.528): -1.23 ± 0.0194 kcal/mol
excess molar enthalpy (308.15 K, 7000 kPa, x2 = 0.5786): -1.32 ± 0.0208 kcal/mol
excess molar enthalpy (308.15 K, 7000 kPa, x2 = 0.6266): -1.42 ± 0.0222 kcal/mol
excess molar enthalpy (308.15 K, 7000 kPa, x2 = 0.6723): -1.49 ± 0.0234 kcal/mol
excess molar enthalpy (308.15 K, 7000 kPa, x2 = 0.7157): -1.56 ± 0.0239 kcal/mol
excess molar enthalpy (308.15 K, 7000 kPa, x2 = 0.7571): -1.62 ± 0.0263 kcal/mol
excess molar enthalpy (308.15 K, 7000 kPa, x2 = 0.7966): -1.65 ± 0.0263 kcal/mol
excess molar enthalpy (308.15 K, 7000 kPa, x2 = 0.8343): -1.69 ± 0.0263 kcal/mol
excess molar enthalpy (308.15 K, 7000 kPa, x2 = 0.8703): -1.71 ± 0.0263 kcal/mol
excess molar enthalpy (308.15 K, 7000 kPa, x2 = 0.9049): -1.68 ± 0.0263 kcal/mol
excess molar enthalpy (308.15 K, 7000 kPa, x2 = 0.9249): -1.66 ± 0.0263 kcal/mol
excess molar enthalpy (308.15 K, 7000 kPa, x2 = 0.9443): -1.35 ± 0.0213 kcal/mol
excess molar enthalpy (308.15 K, 7000 kPa, x2 = 0.9507): -1.24 ± 0.0196 kcal/mol
excess molar enthalpy (308.15 K, 7000 kPa, x2 = 0.9697): -0.767 ± 0.0122 kcal/mol
excess molar enthalpy (308.15 K, 7500 kPa, x2 = 0.0816): -0.178 ± 0.00335 kcal/mol
excess molar enthalpy (308.15 K, 7500 kPa, x2 = 0.1579): -0.338 ± 0.0055 kcal/mol
excess molar enthalpy (308.15 K, 7500 kPa, x2 = 0.2294): -0.499 ± 0.00813 kcal/mol
excess molar enthalpy (308.15 K, 7500 kPa, x2 = 0.2967): -0.633 ± 0.0103 kcal/mol
excess molar enthalpy (308.15 K, 7500 kPa, x2 = 0.36): -0.771 ± 0.0124 kcal/mol
excess molar enthalpy (308.15 K, 7500 kPa, x2 = 0.4197): -0.885 ± 0.0141 kcal/mol
excess molar enthalpy (308.15 K, 7500 kPa, x2 = 0.476): -0.996 ± 0.0158 kcal/mol
excess molar enthalpy (308.15 K, 7500 kPa, x2 = 0.5294): -1.09 ± 0.0172 kcal/mol
excess molar enthalpy (308.15 K, 7500 kPa, x2 = 0.5799): -1.17 ± 0.0186 kcal/mol
excess molar enthalpy (308.15 K, 7500 kPa, x2 = 0.6279): -1.24 ± 0.0196 kcal/mol
excess molar enthalpy (308.15 K, 7500 kPa, x2 = 0.6734): -1.32 ± 0.0208 kcal/mol
excess molar enthalpy (308.15 K, 7500 kPa, x2 = 0.7168): -1.37 ± 0.0217 kcal/mol
excess molar enthalpy (308.15 K, 7500 kPa, x2 = 0.7581): -1.42 ± 0.0225 kcal/mol
excess molar enthalpy (308.15 K, 7500 kPa, x2 = 0.7974): -1.44 ± 0.0227 kcal/mol
excess molar enthalpy (308.15 K, 7500 kPa, x2 = 0.835): -1.46 ± 0.0229 kcal/mol
excess molar enthalpy (308.15 K, 7500 kPa, x2 = 0.871): -1.47 ± 0.0232 kcal/mol
excess molar enthalpy (308.15 K, 7500 kPa, x2 = 0.9053): -1.48 ± 0.0232 kcal/mol
excess molar enthalpy (308.15 K, 7500 kPa, x2 = 0.9382): -1.42 ± 0.0225 kcal/mol
excess molar enthalpy (308.15 K, 7500 kPa, x2 = 0.9698): -1.24 ± 0.0196 kcal/mol
excess molar enthalpy (308.15 K, 7500 kPa, x2 = 0.9759): -1.02 ± 0.0163 kcal/mol
